# Laboratory results: BindingDB's records for doi:10.1111/j.1432-1033.1992.tb17043.x (Universit&Eacute, 1992)
# Non-standard residues stand in square brackets, D forms with d. Residues, ends and D or L forms follow the SMILES beside them. ξ: configuration not given here. Ile(3ξ) = CCC(C)[C@H](N)C(=O)O
# Target: T1, Pituitary adenylate cyclase-activating polypeptide (Homo sapiens, UniProt P18509)
# T1 sequence (P18509 whole entry): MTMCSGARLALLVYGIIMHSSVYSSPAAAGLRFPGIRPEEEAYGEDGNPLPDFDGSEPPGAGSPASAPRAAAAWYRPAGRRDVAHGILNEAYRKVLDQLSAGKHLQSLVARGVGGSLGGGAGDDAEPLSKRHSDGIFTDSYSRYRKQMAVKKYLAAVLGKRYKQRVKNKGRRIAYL
row,Compound,Ki [nM]
1,CSCC[C@H](NC(=O)[C@H](CCC(N)=O)NC(=O)[C@H](CCCCN)NC(=O)[C@H](CCCNC(=N)N)NC(=O)[C@H](Cc1ccc(O)cc1)NC(=O)[C@H](CCCNC(=N)N)NC(=O)[C@H](CO)NC(=O)[C@H](Cc1ccc(O)cc1)NC(=O)[C@H](CO)NC(=O)[C@H](CC(=O)O)NC(=O)[C@@H](NC(=O)[C@@H](N)Cc1ccccc1)[C@@H](C)O)C(=O)N[C@@H](C)C(=O)N[C@H](C(=O)N[C@@H](CCCCN)C(=O)N[C@@H](CCCCN)C(=O)N[C@@H](Cc1ccc(O)cc1)C(=O)N[C@@H](CC(C)C)C(=O)N[C@@H](C)C(=O)N[C@@H](C)C(=O)N[C@H](C(=O)N[C@@H](CC(C)C)C(=O)NCC(=O)N[C@@H](CCCCN)C(=O)N[C@@H](CCCNC(=N)N)C(=O)N[C@@H](Cc1ccc(O)cc1)C(=O)N[C@@H](CCCCN)C(=O)N[C@@H](CCC(N)=O)C(=O)N[C@@H](CCCNC(=N)N)C(=O)N[C@H](C(=O)N[C@@H](CCCCN)C(=O)N[C@@H](CC(N)=O)C(=O)N[C@@H](CCCCN)C(N)=O)C(C)C)C(C)C)C(C)C,1.5
2,CCC(C)[C@H](NC(=O)CNC(=O)[C@@H](N)CC(=O)O)C(=O)N[C@@H](Cc1ccccc1)C(=O)N[C@H](C(=O)N[C@@H](CC(=O)O)C(=O)N[C@@H](CO)C(=O)N[C@@H](Cc1ccc(O)cc1)C(=O)N[C@@H](CO)C(=O)N[C@@H](CCCN=C(N)N)C(=O)N[C@@H](Cc1ccc(O)cc1)C(=O)N[C@@H](CCCN=C(N)N)C(=O)N[C@@H](CCCCN)C(=O)N[C@@H](CCC(N)=O)C(=O)N[C@@H](CCSC)C(=O)N[C@@H](C)C(=O)N[C@H](C(=O)N[C@@H](CCCCN)C(=O)N[C@@H](CCCCN)C(=O)N[C@@H](Cc1ccc(O)cc1)C(=O)N[C@@H](CC(C)C)C(=O)N[C@@H](C)C(=O)N[C@@H](C)C(=O)N[C@H](C(=O)N[C@@H](CC(C)C)C(N)=O)C(C)C)C(C)C)[C@@H](C)O (stereo not given in full) [PACAP(3-27)] (H-DG[Ile(3ξ)]FTDSYSRYRKQMAVKKYLAAVL-NH2),200
3,CCC(C)[C@H](NC(=O)CN)C(=O)N[C@@H](Cc1ccccc1)C(=O)N[C@H](C(=O)N[C@@H](CC(=O)O)C(=O)N[C@@H](CO)C(=O)N[C@@H](Cc1ccc(O)cc1)C(=O)N[C@@H](CO)C(=O)N[C@@H](CCCN=C(N)N)C(=O)N[C@@H](Cc1ccc(O)cc1)C(=O)N[C@@H](CCCN=C(N)N)C(=O)N[C@@H](CCCCN)C(=O)N[C@@H](CCC(N)=O)C(=O)N[C@@H](CCSC)C(=O)N[C@@H](C)C(=O)N[C@H](C(=O)N[C@@H](CCCCN)C(=O)N[C@@H](CCCCN)C(=O)N[C@@H](Cc1ccc(O)cc1)C(=O)N[C@@H](CC(C)C)C(=O)N[C@@H](C)C(=O)N[C@@H](C)C(=O)N[C@H](C(=O)N[C@@H](CC(C)C)C(=O)NCC(=O)N[C@@H](CCCCN)C(=O)N[C@@H](CCCN=C(N)N)C(=O)N[C@@H](Cc1ccc(O)cc1)C(=O)N[C@@H](CCCCN)C(=O)N[C@@H](CCC(N)=O)C(=O)N[C@@H](CCCN=C(N)N)C(=O)N[C@H](C(=O)N[C@@H](CCCCN)C(=O)N[C@@H](CC(N)=O)C(=O)N[C@@H](CCCCN)C(N)=O)C(C)C)C(C)C)C(C)C)[C@@H](C)O (stereo not given in full) [PACAP(4-38)] (H-G[Ile(3ξ)]FTDSYSRYRKQMAVKKYLAAVLGKRYKQRVKNK-NH2),5
4,CCC(C)[C@H](N)C(=O)N[C@@H](Cc1ccccc1)C(=O)N[C@H](C(=O)N[C@@H](CC(=O)O)C(=O)N[C@@H](CO)C(=O)N[C@@H](Cc1ccc(O)cc1)C(=O)N[C@@H](CO)C(=O)N[C@@H](CCCN=C(N)N)C(=O)N[C@@H](Cc1ccc(O)cc1)C(=O)N[C@@H](CCCN=C(N)N)C(=O)N[C@@H](CCCCN)C(=O)N[C@@H](CCC(N)=O)C(=O)N[C@@H](CCSC)C(=O)N[C@@H](C)C(=O)N[C@H](C(=O)N[C@@H](CCCCN)C(=O)N[C@@H](CCCCN)C(=O)N[C@@H](Cc1ccc(O)cc1)C(=O)N[C@@H](CC(C)C)C(=O)N[C@@H](C)C(=O)N[C@@H](C)C(=O)N[C@H](C(=O)N[C@@H](CC(C)C)C(N)=O)C(C)C)C(C)C)[C@@H](C)O (stereo not given in full) [PACAP(5-27)] (H-[Ile(3ξ)]FTDSYSRYRKQMAVKKYLAAVL-NH2),150
5,CCC(C)[C@H](N)C(=O)N[C@@H](Cc1ccccc1)C(=O)N[C@H](C(=O)N[C@@H](CC(=O)O)C(=O)N[C@@H](CO)C(=O)N[C@@H](Cc1ccc(O)cc1)C(=O)N[C@@H](CO)C(=O)N[C@@H](CCCN=C(N)N)C(=O)N[C@@H](Cc1ccc(O)cc1)C(=O)N[C@@H](CCCN=C(N)N)C(=O)N[C@@H](CCCCN)C(=O)N[C@@H](CCC(N)=O)C(=O)N[C@@H](CCSC)C(=O)N[C@@H](C)C(=O)N[C@H](C(=O)N[C@@H](CCCCN)C(=O)N[C@@H](CCCCN)C(=O)N[C@@H](Cc1ccc(O)cc1)C(=O)N[C@@H](CC(C)C)C(=O)N[C@@H](C)C(=O)N[C@@H](C)C(=O)N[C@H](C(=O)N[C@@H](CC(C)C)C(=O)NCC(=O)N[C@@H](CCCCN)C(=O)N[C@@H](CCCN=C(N)N)C(=O)N[C@@H](Cc1ccc(O)cc1)C(=O)N[C@@H](CCCCN)C(=O)N[C@@H](CCC(N)=O)C(=O)N[C@@H](CCCN=C(N)N)C(=O)N[C@H](C(=O)N[C@@H](CCCCN)C(=O)N[C@@H](CC(N)=O)C(=O)N[C@@H](CCCCN)C(N)=O)C(C)C)C(C)C)C(C)C)[C@@H](C)O (stereo not given in full) [PACAP(5-38)] (H-[Ile(3ξ)]FTDSYSRYRKQMAVKKYLAAVLGKRYKQRVKNK-NH2),5
6,"CCC(C)[C@H](NC(=O)CNC(=O)[C@H](CC(=O)O)NC(=O)[C@@H](Cc1ccccc1)NC(=O)[C@H](Cc1cnc[nH]1)NC(C)=O)C(=O)N[C@@H](Cc1ccccc1)C(=O)N[C@H](C(=O)N[C@@H](CC(=O)O)C(=O)N[C@@H](CO)C(=O)N[C@@H](Cc1ccc(O)cc1)C(=O)N[C@@H](CO)C(=O)N[C@@H](CCCN=C(N)N)C(=O)N[C@@H](Cc1ccc(O)cc1)C(=O)N[C@@H](CCCN=C(N)N)C(=O)N[C@@H](CCCCN)C(=O)N[C@@H](CCC(N)=O)C(=O)N[C@@H](CCSC)C(=O)N[C@@H](C)C(=O)N[C@H](C(=O)N[C@@H](CCCCN)C(=O)N[C@@H](CCCCN)C(=O)N[C@@H](Cc1ccc(O)cc1)C(=O)N[C@@H](CC(C)C)C(=O)N[C@@H](C)C(=O)N[C@@H](C)C(=O)N[C@H](C(=O)N[C@@H](CC(C)C)C(N)=O)C(C)C)C(C)C)[C@@H](C)O (stereo not given in full) [[AcHis1,DPhe2]PACAP(1-27)]",1000
7,"CC[C@H](C)[C@H](NC(=O)CNC(=O)[C@H](CC(=O)O)NC(=O)[C@@H](Cc1ccccc1)NC(=O)[C@H](Cc1cnc[nH]1)NC(C)=O)C(=O)N[C@@H](Cc1ccccc1)C(=O)N[C@H](C(=O)N[C@@H](CC(=O)O)C(=O)N[C@@H](CO)C(=O)N[C@@H](Cc1ccc(O)cc1)C(=O)N[C@@H](CO)C(=O)N[C@@H](CCCN=C(N)N)C(=O)N[C@@H](Cc1ccc(O)cc1)C(=O)N[C@@H](CCCN=C(N)N)C(=O)N[C@@H](CCCCN)C(=O)N[C@@H](CCC(N)=O)C(=O)N[C@@H](CCSC)C(=O)N[C@@H](C)C(=O)N[C@H](C(=O)N[C@@H](CCCCN)C(=O)N[C@@H](CCCCN)C(=O)N[C@@H](Cc1ccc(O)cc1)C(=O)N[C@@H](CC(C)C)C(=O)N[C@@H](C)C(=O)N[C@@H](C)C(=O)N[C@H](C(=O)N[C@@H](CC(C)C)C(=O)NCC(=O)N[C@@H](CCCCN)C(=O)N[C@@H](CCCN=C(N)N)C(=O)N[C@@H](Cc1ccc(O)cc1)C(=O)N[C@@H](CCCCN)C(=O)N[C@@H](CCC(N)=O)C(=O)N[C@@H](CCCN=C(N)N)C(=O)N[C@H](C(=O)N[C@@H](CCCCN)C(=O)N[C@@H](CC(N)=O)C(=O)N[C@@H](CCCCN)C(N)=O)C(C)C)C(C)C)C(C)C)[C@@H](C)O [[AcHis1,DPhe2]PACAP(1-38)]",10
8,"CCC(C)[C@H](NC(=O)CNC(=O)[C@H](CC(=O)O)NC(=O)[C@H](Cc1ccccc1)NC(=O)[C@H](Cc1cnc[nH]1)NC(C)=O)C(=O)N[C@@H](Cc1ccccc1)C(=O)N[C@H](C(=O)N[C@@H](CC(=O)O)C(=O)N[C@@H](CO)C(=O)N[C@@H](Cc1ccc(O)cc1)C(=O)N[C@@H](CO)C(=O)N[C@@H](CCCN=C(N)N)C(=O)N[C@@H](Cc1ccc(O)cc1)C(=O)N[C@@H](CCCN=C(N)N)C(=O)N[C@@H](CCCCN)C(=O)N[C@@H](CCC(N)=O)C(=O)N[C@@H](CCSC)C(=O)N[C@@H](C)C(=O)N[C@H](C(=O)N[C@@H](CCCCN)C(=O)N[C@@H](CCCCN)C(=O)N[C@@H](Cc1ccc(O)cc1)C(=O)N[C@@H](CC(C)C)C(=O)N[C@@H](C)C(=O)N[C@@H](C)C(=O)N[C@H](C(=O)N[C@@H](CC(C)C)C(N)=O)C(C)C)C(C)C)[C@@H](C)O (stereo not given in full) [[AcHis1,Phe2]PACAP(1-27)]",100
9,"CCC(C)[C@H](NC(=O)CNC(=O)[C@H](CC(=O)O)NC(=O)[C@H](Cc1ccccc1)NC(=O)[C@H](Cc1cnc[nH]1)NC(C)=O)C(=O)N[C@@H](Cc1ccccc1)C(=O)N[C@H](C(=O)N[C@@H](CC(=O)O)C(=O)N[C@@H](CO)C(=O)N[C@@H](Cc1ccc(O)cc1)C(=O)N[C@@H](CO)C(=O)N[C@@H](CCCN=C(N)N)C(=O)N[C@@H](Cc1ccc(O)cc1)C(=O)N[C@@H](CCCN=C(N)N)C(=O)N[C@@H](CCCCN)C(=O)N[C@@H](CCC(N)=O)C(=O)N[C@@H](CCSC)C(=O)N[C@@H](C)C(=O)N[C@H](C(=O)N[C@@H](CCCCN)C(=O)N[C@@H](CCCCN)C(=O)N[C@@H](Cc1ccc(O)cc1)C(=O)N[C@@H](CC(C)C)C(=O)N[C@@H](C)C(=O)N[C@@H](C)C(=O)N[C@H](C(=O)N[C@@H](CC(C)C)C(=O)NCC(=O)N[C@@H](CCCCN)C(=O)N[C@@H](CCCN=C(N)N)C(=O)N[C@@H](Cc1ccc(O)cc1)C(=O)N[C@@H](CCCCN)C(=O)N[C@@H](CCC(N)=O)C(=O)N[C@@H](CCCN=C(N)N)C(=O)N[C@H](C(=O)N[C@@H](CCCCN)C(=O)N[C@@H](CC(N)=O)C(=O)N[C@@H](CCCCN)C(N)=O)C(C)C)C(C)C)C(C)C)[C@@H](C)O (stereo not given in full) [[AcHis1,Phe2]PACAP(1-38)]",10
10,CC[C@H](C)[C@H](NC(=O)CNC(=O)[C@H](CC(N)=O)NC(=O)[C@H](CO)NC(=O)[C@@H](N)Cc1cnc[nH]1)C(=O)N[C@@H](Cc1ccccc1)C(=O)N[C@H](C(=O)N[C@@H](CC(=O)O)C(=O)N[C@@H](CO)C(=O)N[C@@H](Cc1ccc(O)cc1)C(=O)N[C@@H](CO)C(=O)N[C@@H](CCCNC(=N)N)C(=O)N[C@@H](Cc1ccc(O)cc1)C(=O)N[C@@H](CCCNC(=N)N)C(=O)N[C@@H](CCCCN)C(=O)N[C@@H](CCC(N)=O)C(=O)N[C@@H](CCSC)C(=O)N[C@@H](C)C(=O)N[C@H](C(=O)N[C@@H](CCCCN)C(=O)N[C@@H](CCCCN)C(=O)N[C@@H](Cc1ccc(O)cc1)C(=O)N[C@@H](CC(C)C)C(=O)N[C@@H](C)C(=O)N[C@@H](C)C(=O)N[C@H](C(=O)N[C@@H](CC(C)C)C(N)=O)C(C)C)C(C)C)[C@@H](C)O [[Asn3]PACAP(1-27)],200
